Experimental data published in ChEMBL document CHEMBL1201862, “PubChem BioAssay data set” (2004).
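Cultured in 96-well plates, cells were exposed to test compound for 48 hours across five concentrations. GI50 = concentration required for 50% inhibition of growth.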 Active and inactive are the calls of the source. Rule as the data show it: active = GI50 up to about 1.1 µM and inactive = higher.

How the values were obtained:
Test in all cases: NCI-60 cell line screen, 48 h
MDA-N = system: MDA-N
DMS-114 = system: DMS-114
DMS-273 = system: DMS-273
HOP-18 = system: HOP-18
LXFL 529 = system: LXFL 529
RXF 631 = system: RXF 631
SNB-78 = system: SNB-78
M19-MEL = system: M19-MEL
XF498 = system: XF498

C=C(C)c1nc(C#N)c(N)o1
GI50 (MDA-N): > 100 µM (inactive)

N#C/C(=C1C=C(Br)/C(=N\O)C=C\1Cl)c1cccc2ccccc12
GI50 (MDA-N): 1.61 µM (inactive)

O=C(CC(C(=O)c1cccs1)c1ccsc1)c1ccco1 (stereo unspecified)
GI50 (MDA-N): 27.7 µM (inactive)

COC1OC(Cn2c(C)nc(Br)c2Br)C(O)C(O)C1O (stereo unspecified)
GI50 (MDA-N): > 100 µM (inactive)

Cc1ccc(C)c(NC(=O)C(=O)Nn2c(S)nc3ccccc3c2=O)c1
GI50 (DMS-114): > 100 µM (inactive) | GI50 (DMS-273): > 100 µM (inactive) | GI50 (HOP-18): > 100 µM (inactive) | GI50 (LXFL 529): > 100 µM (inactive) | GI50 (RXF 631): > 100 µM (inactive) | GI50 (SNB-78): > 100 µM (inactive)

COc1ccc(NC(=S)NNC(=O)c2cc(-c3ccccc3)nc3ccccc23)cc1
GI50 (MDA-N): 4.03 µM (inactive)

Cc1c[nH]c2c1C13CC1CN(C(=O)c1cc4cc(NC(=O)c5cc6ccccc6o5)ccc4[nH]1)C3=CC2=O (stereo unspecified)
GI50 (DMS-114): < 0.001 µM (active) | GI50 (HOP-18): < 0.001 µM (active) | GI50 (M19-MEL): < 0.001 µM (active) | GI50 (RXF 631): < 0.001 µM (active) | GI50 (SNB-78): < 0.001 µM (active) | GI50 (XF498): < 0.001 µM (active)

c1ccc(-c2nc(-c3ccccc3SSc3ccccc3-c3nc(-c4ccccc4)nn3-c3ccccc3)n(-c3ccccc3)n2)cc1
GI50 (MDA-N): > 100 µM (inactive)

Cc1ccccc1Nc1cn(COCc2ccccc2)c(=O)[nH]c1=O
GI50 (MDA-N): > 100 µM (inactive)

O=c1c(C(c2ccc3c(c2)Cc2ccccc2-3)c2c(O)oc3ccccc3c2=O)c(O)oc2ccccc12
GI50 (MDA-N): 19.9 µM (inactive)

O=C1C(c2ccccc2)=C(c2ccccc2)C(c2ccc(Sc3ccc(C4=C(c5ccccc5)C(=O)C(c5ccccc5)=C4c4ccccc4)cc3)cc2)=C1c1ccccc1
GI50 (DMS-114): > 100 µM (inactive) | GI50 (DMS-273): > 100 µM (inactive) | GI50 (M19-MEL): > 100 µM (inactive) | GI50 (RXF 631): > 100 µM (inactive) | GI50 (SNB-78): 87.5 µM (inactive) | GI50 (XF498): > 100 µM (inactive)

CCOC(=O)C1=C(Nc2ccc(Cl)c(Cl)c2)OC/C1=N\NS(=O)(=O)c1ccc(C)cc1
GI50 (DMS-114): 56.4 µM (inactive) | GI50 (HOP-18): 27.5 µM (inactive) | GI50 (LXFL 529): 46.9 µM (inactive) | GI50 (M19-MEL): 94.6 µM (inactive) | GI50 (RXF 631): 29.6 µM (inactive) | GI50 (SNB-78): > 100 µM (inactive) | GI50 (XF498): 94 µM (inactive)

CC(=O)N(/N=C\c1ccc([N+](=O)[O-])cc1)c1ccccc1
GI50 (DMS-114): 99.8 µM (inactive) | GI50 (DMS-273): > 100 µM (inactive) | GI50 (HOP-18): > 100 µM (inactive) | GI50 (M19-MEL): > 100 µM (inactive) | GI50 (RXF 631): > 100 µM (inactive) | GI50 (SNB-78): > 100 µM (inactive) | GI50 (XF498): > 100 µM (inactive)

Cn1c2c3ccccc3nc-2c(O)c2ccccc21 [HYDROXYCRYPTOLEPINE]
GI50 (MDA-N): > 100 µM (inactive)

CN(C)CCOc1ccc(-c2c(Oc3ccccc3)c(=O)oc3ccccc23)cc1
GI50 (MDA-N): 2.19 µM (inactive)

c1ccc2c(c1)CCN(C1=NCCO1)C2
GI50 (MDA-N): > 10 µM (inactive)

CCOC(=O)Cc1nc(/C(C#N)=C/c2ccco2)[nH]c(=O)c1C#N
GI50 (DMS-273): > 100 µM (inactive) | GI50 (HOP-18): > 100 µM (inactive) | GI50 (LXFL 529): > 100 µM (inactive) | GI50 (M19-MEL): > 100 µM (inactive) | GI50 (SNB-78): 37.8 µM (inactive)

CCOc1ccccc1/N=N/c1c(-c2ccccc2)nn(C(=O)CC(=O)Nc2cccc(Cl)c2)c1-c1ccccc1
GI50 (DMS-114): 15.9 µM (inactive) | GI50 (DMS-273): 22.5 µM (inactive) | GI50 (HOP-18): > 100 µM (inactive) | GI50 (LXFL 529): 39.5 µM (inactive) | GI50 (M19-MEL): 76.6 µM (inactive) | GI50 (SNB-78): 59.3 µM (inactive) | GI50 (XF498): 62.4 µM (inactive)

COc1ccc(/C=C/c2cc(=O)cc(/C=C/c3ccc(OC)c(O)c3)o2)cc1O
GI50 (MDA-N): 1.44 µM (inactive)

CC(C)(C)OC(=O)CN1CCNCCNCC1
GI50 (MDA-N): > 100 µM (inactive)

CCc1nc(N)nc(N)c1-c1ccc(Cl)c(/N=C/N(C)C)c1
GI50 (MDA-N): 45.9 µM (inactive)

COc1ccc(/C(=C/n2ccnc2)C(=O)c2ccc(OC)c(OC)c2)cc1
GI50 (DMS-114): > 100 µM (inactive) | GI50 (DMS-273): > 100 µM (inactive) | GI50 (LXFL 529): > 100 µM (inactive) | GI50 (M19-MEL): > 100 µM (inactive) | GI50 (XF498): > 100 µM (inactive)

O=C1c2ccccc2-[n+]2ccc3c([nH]c4ccccc43)c21 [FASCAPLYSIN CHLORIDE]
GI50 (MDA-N): 0.191 µM (active)

COC(=O)C1(Cc2ccc3c(c2)CCC3)Cc2cc3c(cc2C1)CCC3
GI50 (MDA-N): 40.6 µM (inactive)

c1ccc2c(c1)[n-]n1c3ccc4nonc4c3n[n+]21
GI50 (MDA-N): > 100 µM (inactive)

Cc1ccc2c(/C=C/c3ccc(N(C)C)cc3)ccnc2c1C
GI50 (MDA-N): 3.99 µM (inactive)

CC[N+]1(C)CCC(O)(c2ccc(Cl)c(Cl)c2)C(C(=O)c2ccc(Cl)c(Cl)c2)C1 (stereo unspecified)
GI50 (MDA-N): > 10 µM (inactive)

C/C(=N/N(C=O)C[n+]1ccccc1)C(CN(CC(C)C)CC(C)C)C(=O)Nc1ccc(C)cc1C (stereo unspecified)
GI50 (DMS-114): 70.8 µM (inactive) | GI50 (RXF 631): > 100 µM (inactive)

O=C(O)c1ccc(C2C(=O)N[C@@H]3CCC[C@H]23)cc1 (stereo partly specified)
GI50 (DMS-114): > 100 µM (inactive) | GI50 (DMS-273): > 100 µM (inactive) | GI50 (HOP-18): > 100 µM (inactive) | GI50 (LXFL 529): > 100 µM (inactive) | GI50 (M19-MEL): > 100 µM (inactive) | GI50 (SNB-78): > 100 µM (inactive)

CCOC(=O)CCC(NC(=O)c1ccc(OCc2ccc3nc(-c4ccccc4)c(Cl)nc3c2)cc1)C(=O)OCC (stereo unspecified)
GI50 (MDA-N): > 100 µM (inactive)

CNC(=O)N(CCC#N)CCCN(C(=O)N(C)C)c1ccccc1
GI50 (MDA-N): > 100 µM (inactive)

O=C1Nc2nccnc2C(=O)N2CCC[C@@H]12
GI50 (MDA-N): > 100 µM (inactive)

CCN(CC)N1C(=O)[N-][N+](CC)(CC)C1=O
GI50 (MDA-N): > 100 µM (inactive)

Cc1ccc(-n2cc(/C(N)=N/O)c3ccccc3c2=O)cc1
GI50 (DMS-114): > 100 µM (inactive) | GI50 (DMS-273): > 100 µM (inactive) | GI50 (LXFL 529): > 100 µM (inactive) | GI50 (M19-MEL): > 100 µM (inactive) | GI50 (XF498): > 100 µM (inactive)

COc1ccc(/C=N/n2c(Cc3ccccc3)n[nH]c2=O)cc1
GI50 (MDA-N): > 100 µM (inactive)
